Test results published in the NIST ThermoML archive (doi:10.1021/je700096m).

Conditions: Liquid

CCCCCCCl [1-chlorohexane]
Conditions	mass density [kg/m3]
288.15 K, 100 kPa	882.7
288.15 K, 2000 kPa	884.4
288.15 K, 4100 kPa	886
288.15 K, 5900 kPa	887.5
288.15 K, 8100 kPa	889.2
288.15 K, 10100 kPa	890.7
288.15 K, 12200 kPa	892.3
288.15 K, 14200 kPa	893.8
288.15 K, 16200 kPa	895.2
288.15 K, 18200 kPa	896.7
288.15 K, 20200 kPa	898.3
298.15 K, 100 kPa	873.1
298.15 K, 2000 kPa	874.8
298.15 K, 4100 kPa	876.6
298.15 K, 6100 kPa	878.3
298.15 K, 8100 kPa	879.9
298.15 K, 10200 kPa	881.7
298.15 K, 12100 kPa	883.3
298.15 K, 14200 kPa	885
298.15 K, 16400 kPa	886.6
298.15 K, 18400 kPa	888.1
298.15 K, 20200 kPa	889.6
308.15 K, 100 kPa	864.3
308.15 K, 2000 kPa	866.1
308.15 K, 4100 kPa	868
308.15 K, 6100 kPa	869.7
308.15 K, 8100 kPa	871.5
308.15 K, 10200 kPa	873.3
308.15 K, 12100 kPa	875
308.15 K, 14200 kPa	876.7
308.15 K, 16200 kPa	878.3
308.15 K, 18300 kPa	879.9
308.15 K, 20200 kPa	881.5
318.15 K, 100 kPa	855.1
318.15 K, 2000 kPa	857
318.15 K, 4000 kPa	858.9
318.15 K, 6100 kPa	860.9
318.15 K, 8100 kPa	862.7
318.15 K, 10100 kPa	864.6
318.15 K, 11900 kPa	866.1
318.15 K, 14100 kPa	868.1
318.15 K, 16100 kPa	869.9
318.15 K, 18000 kPa	871.4
318.15 K, 20000 kPa	872.8

CN(C)C=O [dimethylformamide]
Conditions	mass density [kg/m3]
288.15 K, 100 kPa	953.4
288.15 K, 2100 kPa	954.5
288.15 K, 4000 kPa	955.6
288.15 K, 6100 kPa	956.8
288.15 K, 7900 kPa	957.8
288.15 K, 9900 kPa	958.9
288.15 K, 12100 kPa	960.1
288.15 K, 14000 kPa	961.2
288.15 K, 16000 kPa	962.2
288.15 K, 18000 kPa	963.3
288.15 K, 19800 kPa	964.3
298.15 K, 100 kPa	943.8
298.15 K, 2000 kPa	945
298.15 K, 4100 kPa	946.2
298.15 K, 6100 kPa	947.4
298.15 K, 8100 kPa	948.6
298.15 K, 10100 kPa	949.8
298.15 K, 12100 kPa	951
298.15 K, 14100 kPa	952.1
298.15 K, 16300 kPa	953.3
298.15 K, 18300 kPa	954.3
298.15 K, 20100 kPa	955.5
308.15 K, 100 kPa	935
308.15 K, 2000 kPa	936.2
308.15 K, 4100 kPa	937.6
308.15 K, 6100 kPa	938.9
308.15 K, 8100 kPa	940
308.15 K, 10100 kPa	941.2
308.15 K, 12100 kPa	942.5
308.15 K, 14300 kPa	943.7
308.15 K, 16300 kPa	944.9
308.15 K, 18300 kPa	946
308.15 K, 20200 kPa	947
318.15 K, 100 kPa	925.5
318.15 K, 2100 kPa	926.9
318.15 K, 4000 kPa	928.3
318.15 K, 6000 kPa	929.6
318.15 K, 7900 kPa	930.8
318.15 K, 10200 kPa	932.2
318.15 K, 12000 kPa	933.4
318.15 K, 14000 kPa	934.5
318.15 K, 16000 kPa	935.8
318.15 K, 18000 kPa	937
318.15 K, 20200 kPa	938.1
